For data set [1], the system named is Groα secretion by HT-29 cells. The data set can be described thus: Inhibition of Groα secretion by HT-29 cells stimulated with IL-17A (ELISA). Format: cell-based, Human. To be noted: Homo sapiens, IL-17A 30 ng/ml, 48 hours, Groα in supernatant. Put shortly: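 HT-29 cells (10,000/well) were cultured overnight, then given compound pre-mixed 30 min with IL-17A (final 30 ng/ml) and incubated 48 hours at 37°C. Groα in supernatant was measured by ELISA at 450 nm; inhibition relative to IL-17A-stimulated control, IC50 from four-parameter fit.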

Data set [2] has as its target T1, human IL-17RA and IL-17A proteins (Homo sapiens, UniProt Q16552).
T1 sequence (Q16552 24-155): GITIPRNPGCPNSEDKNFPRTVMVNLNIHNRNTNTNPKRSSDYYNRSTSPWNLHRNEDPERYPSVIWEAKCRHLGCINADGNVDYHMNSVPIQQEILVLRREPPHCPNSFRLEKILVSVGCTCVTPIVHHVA
The data set can be described thus: Competitive ELISA: blocking of binding between human IL-17RA and IL-17A. The following applies: coated IL-17A, IL-17RA 5 nM. The procedure: Test example 1 Assay for competitive binding effect between compounds of the present invention and human IL-17 receptor for ligand
1. Experimental objective: to quantitatively determine the blocking effect of the compound on the binding between human IL-17RA and IL-17A proteins using competitive ELISA under in vitro conditions. 2. Experimental instruments and reagents: 2.1 Instruments:
2.2 Reagents: 3. Experimental method: IL-17A at 0.0625 µg/mL was coated in a 96-well plate at 4°C overnight at 100 µL per well. The plate was washed with PBST (300 µL/well x 4), and then blocked at 24°C for 2 h by adding 300 µL of ELISA Blocker blocking buffer to each well. The plate was further washed under the same conditions. 80 µL of PBS solution containing 1% BSA and 10 µL of 10× test compound solution were added to each well and mixed uniformly, and then the mixture was incubated at room temperature for 1 hour. After that, 10 µL of IL-17RA solution was added to a final concentration of 5 nM and mixed uniformly, and then the mixture was incubated at 24°C for 1 h. The corresponding concentration and volume of DMSO solution without compounds was added to positive control wells, and 1% BSA solution without IL-17RA was added to negative control wells.
After the plate was washed four times, 100 µL of the anti-Fc tag HRP-conjugated antibody was added, and the mixture was incubated at 37°C for 1 h. After the plate was washed four times, 100 µL of TMB substrate was added to each well, and the mixture was incubated at 37°C in the dark. After colour development was completed, the reaction was terminated by adding 100 µL of stop solution to each well, and the absorbance was measured at wavelengths of 450 nm and 570 nm using a microplate reader.
• 1) Inhibition rate (%): The original data (OD450-OD570) was calculated according to the following formula to obtain the inhibition rate. Inhibition rate% = [(average value of positive control wells - value of sample wells)/(average value of positive control wells - average value of negative control wells)] × 100, where the positive control wells are wells without compounds, and the negative control wells are wells without IL-17RA protein solution. • 2) Curve fitting: Log(inhibitor) vs. response -- Variable slope (four parameters) in GraphPad Prism 8 was used for fitting equation analysis of the compound concentration and the corresponding inhibition rate, and the curve was fitted to obtain the IC50 value of the compound. The fitting calculation equation was Y = Bottom + (Top - Bottom) / (1 + 10^((LogIC50 - X) * HillSlope)).
Background: An ELISA detects its analyte on a solid surface through an enzyme-linked reagent.

Data set [3] can be described thus: Pharmacokinetic assay in Wistar rats, oral. To be noted: rat, plasma, 30 mg/kg.
Experimental: Experimental objective: to study the pharmacokinetic behaviours of the compounds of the present invention in the body (plasma) of Wistar rats as test animals after oral administration at a dose of 30 mg/kg. • 2. Experimental scheme • 2.1 Test drugs: the examples of the present invention, prepared in house. • 2.2 Test animals: Wistar rats (female, 3 rats per group), from Beijing Vital River Laboratory Animal Technology Co., Ltd., with the animal production license no.
Solutol HS15 was melted in a water bath at 50-60°C, and then 50 mL of the melted Solutol HS15 was added to 450 mL of ultrapure water. The mixture was stirred and sonicated to obtain 500 mL of 10% Solutol HS15 solution. The compound was weighed, and according to the total administration volume, 30% PEG solution was first added. The mixture was shaken uniformly and sonicated until a clear solution was obtained. Subsequently, 70% (10% Solutol) in water was added, resulting in a colourless and clear solution with a concentration of 3.0 mg/mL.
2.4 Administration scheme: After overnight fasting, 3 female Wistar rats per group were administered orally (PO) at a dose of 30 mg/kg with an administration volume of 10 mL/kg.
• 1) To 50 uL of plasma sample was added 250 uL of acetonitrile for precipitation, and the mixture was mixed and then centrifuged at 4°C at 4000 rpm for 20 minutes. • 2) The treated supernatant solution was taken and subjected to LC/MS/MS to analyse the concentration of the test compounds. LC/MS/MS analysis instrument: AB Sciex API-4000 Qtrap-Shimadzu Controller-CBM20A.
• Chromatographic column: Waters Xbridge C18 3.5 um 2.1*50 mm • Mobile phase: solution A: 0.1% formic acid in water, and solution B: 0.1% formic acid in acetonitrile • Flow rate: 0.6 mL/min • Elution time: 0-3.5 minutes, with eluents as follows:

The term IC50 denotes the concentration at which inhibition is half-maximal. Read a low IC50 as greater potency. What is called AUC(0-t) is the area under the concentration-time curve up to a stated or last time point. The term Cmax denotes the peak of the concentration-time curve. The term Tmax denotes the time from dosing to the highest level. The half-life is the time needed for the level to fall by half in the phase considered.

As for `CCc1nonc1C(=O)NC(C(=O)Nc1ncc(C(COC)N2CC(C(F)(F)F)NC2=O)s1)C1CCC(C)CC1` (centres unmarked) [Example 521], the IC50 in data set [1] came out at 2 nM; in data set [2] it was 1.3 nM.

The molecule `COCC(c1cnc(NC(=O)C(NC(=O)OC2CC2)C2CCC(C)CC2)s1)N1CC(C(F)(F)F)NC1=O` (centres unmarked) [Example 522] returned an IC50 in data set [2] of 6.2 nM.

On to `C[C@H]1CC[C@H]([C@H](NC(=O)OC2CC2)C(=O)Nc2ncc([C@@H](CC3CC3)N3CC(F)(F)CNC3=O)s2)CC1` [Example 524], for which the figures for the IC50 in data set [1] and in data set [2] were 9.3 nM and 3.6 nM, respectively.

Turning to `CCc1nonc1C(=O)N[C@H](C(=O)Nc1ncc([C@@H](C2CCOCC2)n2cc(Cl)ccc2=O)s1)[C@H]1CC[C@H](C)CC1` [Example 532], the IC50 in data set [1] and in data set [2] was 7.9 nM throughout.

Consider `CCc1nonc1C(=O)N[C@H](C(=O)Nc1ncc([C@@H](COC)N2CC(F)(F)CNC2=O)s1)[C@H]1CC[C@H](C)CC1` [Example 556], for which, in data set [3], the AUC(0-t) stood at 22100 ng·h/mL, the concentration peaked (Cmax) at 2390 ng/mL, the Tmax is 2 h and the half-life is 2.3 h. The molecule also yielded an IC50 in data set [1] of 4.6 nM. For the same molecule, the IC50 in data set [2] was 1.8 nM.

For `[2H]C1([2H])NC(=O)N([C@H](COC)c2cnc(NC(=O)[C@@H](NC(=O)OC3CC3)[C@H]3CC[C@H](C)CC3)s2)C([2H])([2H])C1(F)F` [Example 559], in data set [3], the AUC(0-t) was 12700 ng·h/mL, the concentration peaked (Cmax) at 2190 ng/mL, the Tmax came out at 2 h and the half-life is 2.7 h. Further, the IC50 in data set [2] was determined as 4.3 nM.

For `COC[C@H](c1cnc(NC(=O)[C@@H](NC(=O)c2nonc2C)[C@H]2CC[C@H](C)CC2)s1)n1cc(Cl)ccc1=O` [Example 569], the IC50 in data set [2] turned out to be 5 nM.

With `COC[C@H](c1cnc(NC(=O)[C@@H](NC(=O)C2(F)CC2)[C@H]2CC[C@H](C)CC2)s1)N1CC(F)(F)CNC1=O` [Example 592], the IC50 in data set [2] is 6.4 nM.

With `CC1CCC([C@H](NC(=O)C2(F)CC2)C(=O)Nc2ncc(C(CN3CCOCC3)N3CC(F)(F)CNC3=O)s2)CC1` (some centres unmarked) [Example 601], the IC50 in data set [1] stood at 7.5 nM; in data set [2], 4.1 nM.

Molecule `[2H]C1([2H])NC(=O)N([C@H](COC)c2cnc(NC(=O)[C@@H](NC(=O)C3(F)CC3)[C@H]3CC[C@H](C)CC3)s2)C([2H])([2H])C1(F)F` [Example 688, N-((S)-2-((5-((R)-1-(5,5-difluoro-2-carbonyltetrahydropyrimidin-1(2H)-yl-4,4,6,6-d4)-2-methoxyethyl)thiazol-2-yl)amino)-1-((1r,4S)-4-methylcyclohexyl)-2-carbonylethyl)-1-fluorocyclopropane-1-carboxamide] returned an IC50 in data set [2] of 5.1 nM.

On to `C[C@H]1CC[C@H]([C@H](NC(=O)C2(F)CC2)C(=O)Nc2ncc([C@@H](CN3CCO[C@H](CF)C3)N3CC(F)(F)CNC3=O)s2)CC1` [Example 696, N-((S)-2-((5-((R)-1-(5,5-difluoro-2-oxotetrahydropyrimidin-1(2H)-yl)-2-((S)-2-(fluoromethyl)morpholino)ethyl)thiazol-2-yl)amino)-1-((1r,4S)-4-methylcyclohexyl)-2-oxoethyl)-1-fluorocyclopropane-1-carboxamide], for which the IC50 in data set [1] amounted to 2 nM; in data set [2], 5 nM.

Consider `C[C@H]1CC[C@H]([C@H](NC(=O)C(F)(F)C2CC2)C(=O)Nc2ncc([C@@H](CN3CCO[C@H](CF)C3)N3CC(F)(F)CNC3=O)s2)CC1` [Example 700], for which the results for the IC50 in data set [1] and in data set [2] were 2.6 nM and 3.4 nM, respectively.

For the molecule `C[C@H]1CC[C@H]([C@H](NC(=O)C2(F)CC2)C(=O)Nc2ncc([C@@H](CN3CCO[C@@H](CF)C3)N3CC(F)(F)CNC3=O)s2)CC1` [Example 703], the values for the IC50 in data set [1] and in data set [2] were 7 nM and 7.5 nM, respectively.

For the molecule `CC[C@@H]1CN(C[C@H](c2cnc(NC(=O)[C@@H](NC(=O)C3(F)CC3)[C@H]3CC[C@H](C)CC3)s2)N2CC(F)(F)CNC2=O)CCO1` [Example 704], the IC50 in data set [1] amounted to 6.5 nM; in data set [2] it was 4.9 nM.

Consider `CC1(C)CN(C[C@H](c2cnc(NC(=O)[C@@H](NC(=O)C3(F)CC3)[C@H]3CC[C@H](C)CC3)s2)N2CC(F)(F)CNC2=O)CCO1` [Example 718], for which the results for the IC50 in data set [1] and in data set [2] were 8 nM and 5 nM, respectively.

In data set [2], `C[C@H]1CC[C@H]([C@H](NC(=O)C2(F)CC2)C(=O)Nc2ncc([C@@H](CN3CCOC4(CC4)C3)N3CC(F)(F)CNC3=O)s2)CC1` [Example 721] displayed an IC50 of 4 nM. This lies in the single-digit nanomolar range.

Consider `CC1(C)COCCN1C[C@H](c1cnc(NC(=O)[C@@H](NC(=O)C2(F)CC2)[C@H]2CC[C@H](C)CC2)s1)N1CC(F)(F)CNC1=O` [Example 723], for which the IC50 in data set [1] amounted to 4 nM; in data set [2], 5 nM.

For `C[C@@H]1CN(C[C@H](c2cnc(NC(=O)[C@@H](NC(=O)C3(F)CC3)[C@H]3CC[C@H](C)CC3)s2)N2CC(F)(F)CNC2=O)C[C@H](C)O1` [Example 724], the IC50 came to 4 nM in data set [1] and 6 nM in data set [2].

Regarding `C[C@@H]1CN(C[C@H](c2cnc(NC(=O)[C@@H](NC(=O)C(F)(F)C3CC3)[C@H]3CC[C@H](C)CC3)s2)N2CC(F)(F)CNC2=O)C[C@H](C)O1` [Example 725], the IC50 in data set [1] is 2.5 nM; in data set [2] it was 5.6 nM.

`C[C@@H]1CN(C[C@H](c2cnc(NC(=O)[C@@H](NC(=O)C3(F)CC3)[C@H]3CC[C@H](C)CC3)s2)N2CC(F)(F)CNC2=O)C[C@@H](C)O1` [Example 726]: the IC50 came to 1.8 nM in data set [1] and 4.8 nM in data set [2].

On to `C[C@@H]1CN(C[C@H](c2cnc(NC(=O)[C@@H](NC(=O)C(F)(F)C3CC3)[C@H]3CC[C@H](C)CC3)s2)N2CC(F)(F)CNC2=O)C[C@@H](C)O1` [Example 727], for which the IC50 was 1.2 nM in data set [1] and 3.3 nM in data set [2].

Take `C[C@H]1CN(C[C@H](c2cnc(NC(=O)[C@@H](NC(=O)C3(F)CC3)[C@H]3CC[C@H](C)CC3)s2)N2CC(F)(F)CNC2=O)C[C@H](C)O1` [Example 730]: in data set [2], the IC50 came to 6.7 nM.

Turning to `C[C@H]1CN(C[C@H](c2cnc(NC(=O)[C@@H](NC(=O)C3(F)CC3)[C@H]3CC[C@H](C)CC3)s2)N2CC(F)(F)CNC2=O)[C@@H](C)CO1` [Example 734], the IC50 worked out at 2 nM in data set [1] and 2.9 nM in data set [2].

As to `C[C@H]1CC[C@H]([C@H](NC(=O)C2(F)CC2)C(=O)Nc2ncc([C@@H](CN3CCC(F)CC3)N3CC(F)(F)CNC3=O)s2)CC1` [Example 760], the IC50 was 5.7 nM in data set [1] and 7 nM in data set [2].

As to `COC1CCN(C[C@H](c2cnc(NC(=O)[C@@H](NC(=O)C3(F)CC3)[C@H]3CC[C@H](C)CC3)s2)N2CC(F)(F)CNC2=O)CC1` [Example 777], the IC50 in data set [1] came out at 5.3 nM; in data set [2] it was 8 nM.

With `[2H]C([2H])([2H])O[C@@H]1CCN(C[C@H](c2cnc(NC(=O)[C@@H](NC(=O)C3(F)CC3)[C@H]3CC[C@H](C)CC3)s2)N2CC(F)(F)CNC2=O)C[C@@H]1F` [Example 781], the IC50 in data set [1] was 10 nM; in data set [2], 5 nM.

Regarding `[2H]C([2H])([2H])O[C@H]1CCN(C[C@H](c2cnc(NC(=O)[C@@H](NC(=O)C3(F)CC3)[C@H]3CC[C@H](C)CC3)s2)N2CC(F)(F)CNC2=O)C[C@H]1F` [Example 782], the IC50 in data set [1] and in data set [2] was 4 nM each time.

Turning to `C[C@H]1CN(C[C@H](c2cnc(NC(=O)[C@@H](NC(=O)C3(F)CC3)[C@H]3CC[C@H](C)CC3)s2)N2CC(F)(F)CNC2=O)CCO1` [Example 1013], the IC50 in data set [1] and in data set [2] was 9 nM throughout.

On to `C[C@@H]1COCCN1C[C@H](c1cnc(NC(=O)[C@@H](NC(=O)C2(F)CC2)[C@H]2CC[C@H](C)CC2)s1)N1CC(F)(F)CNC1=O` [Example 1015], for which the IC50 came out at 6 nM in data set [1] and 4 nM in data set [2].

The values are drawn from patent publication EP4711365A1 (Shanghai Hansoh Biomedical Co., Ltd., priority 2023, dated 2024).
